Key:
respiring E.coli = assay: Flow microcalorimetry, p-t curves of respiring cells in glucose buffer; assay type: cell-based; conditions: for Effect on power: neomycin alone added to respiring E.coli, Fig. 16; for Effect on p-t curve / power output: Polymyxin B alone, concentration not stated, Fig. 15
Procedure: For a typical calorimetric incubation the medium was passed through the calorimetric vessel at the same flow rate and temperature as those used in the experiment to establish a steady baseline deflection. The following operations then took place to a strict timetable. The liquid nitrogen stored ampoule was thawed at 38°C for 3 min and then stirred for 20 sec on a whirlimixer. The bacterial suspension (0.5-1.5ml) volumes was inoculated into the medium (100ml) two minutes after completion of thawing. A Gilson automatic pipette was used for inoculation. The calorimeter inlet flow-line was placed in the incubation medium 30 seconds after inoculation. The flowing incubation medium reached the calorimetric vessel two min after inlet flow-line insertion. At this time the recording of the p-t curves was started. Eight min after inoculation the outflow from the calorimeter was returned to the fermenter (after the "baseline" medium had run to waste but before the inoculated medium ran to waste) thus making a closed system. Aeration was started as soon as the inlet tube was inserted in the fermenter. Microbiological purity of the culture was checked by plating out a sample of the culture at the end of each incubation on nutrient agar (lab M).
The output of calorimetric experiments is a plot of power (energy evolution per unit of time) as a function of time. The unit of power (p) is the Watt (W) and the unit of time is the hour (h). In some experiments seconds (s) were used as time unit.
E.coli was suspended in 10% DMSO prior to freezing and the viable counts were for batch 1: pre-freeze: 4.0 ± 0.6_ x 10^10 cfu/ml and post -freeze 2.0 ± 0.44 x 10^10 cfu/ml and for batch 2: pre-freeze: 3.45 ± 0.58 x 10^10 cfu/ml and post-freeze 2.93 ± 0.43 x 10^10 cfu/ml. The freezing rate for both batches was 20°C/min the survival rate was 50% for batch 1 and 85% for batch 2. These differences may have been due to batch 1 being kept for 24h at 4°C before being frozen.
The respiration experiments were carried out in glucose buffer at different pH. The respiration curves obtained from batch 1 (inoculum 2 x 10^10 cfu/ml) and batch 2 Inoculum 3.2 x 10^10 cfu/ml) were essentially similar and a mean was used as a reference). The respiration experiments were carried out at pH 7 for polymyxin and Znbacitracin and at pH 8 for neomycin. No differences in p-t control curves could be observed at pH 7 or pH 8.
The p-t curves rose and reached a plateau as has been observed for respiration of yeasts and some 20 min later fell to a lower plateau value. Prior incubation of the cells in the buffered glucose for periods up to 20 min before presentation to the calorimeter could reduce or entirely remove this effect.

Bacillus Pumilus = assay: Flow microcalorimetry, p-t curves of growing culture with antibiotics and mixtures; assay type: cell-based
Text: To the vertical face of the vessel close to its base, equidistantly spaced around the circumference, ports were fitted for an oxygen electrode and for sampling/inoculation. The fermenter was closed with a flat flanged glass lid which had five ports accommodating respectively, gas inlet tube, gas exhaust (via air condenser), inlet and outlet flow-lines to and from the calorimeter. The fermenter and lid was sealed with a p.t.f.e. gasket and clamped with a metal clip. The fermenter was placed on a magnetic stirring unit in a water jacket which allowed circulation of the thermostatically controlled water at 30°C or 37°C. The fermenter which contained a Teflon coated magnetic stirring bar, was sterilised by autoclaving.
For a typical calorimetric incubation the medium was passed through the calorimetric vessel at the same flow rate and temperature as those used in the experiment to establish a steady baseline deflection. The following operations then took place to a strict timetable. The liquid nitrogen stored ampoule was thawed at 38°C for 3 min and then stirred for 20 sec on a whirlimixer. The bacterial suspension (0.5-1.5ml) volumes was inoculated into the medium (100ml) two minutes after completion of thawing. A Gilson automatic pipette was used for inoculation. The calorimeter inlet flow-line was placed in the incubation medium 30 seconds after inoculation. […]

[1] = POLB 6.3 ug/ml, respiration, pH 7

Row | Molecule | Linear dose-response range (respiring E.coli; NEO, respiration, pH 8) [µg/mL] | Effect on heat output (respiring E.coli; all concentrations of Neomycin, respiring E.coli) | Effect on power (respiring E.coli; listed as Neomycin) | Effect on power (respiring E.coli; listed as neomycin) | Range of linear relationship between dose and the reciprocal of increase in response from the control curve (respiring E.coli; neomycin, respiring E.coli) [µg/mL] | Effect on power output in growth studies (Bacillus Pumilus; concentration not given) | Observed effect on p-t curves (respiring E.coli; [1]) | Time of return of p-t curve to baseline (respiring E.coli; [1]) [h] | Effect on p-t curve / power output (respiring E.coli; listed as Polymyxin B) | Effect on p-t curve / power output (respiring E.coli; listed as polymyxin B) | Time within which growth was inhibited completely (Bacillus Pumilus; 20ug/ml POLB, bacterial concentration printed '0?' as % of p-t curve, pH 8.00)
1 | NC[C@@H]1O[C@H](O[C@H]2[C@@H](O)[C@H](O[C@@H]3[C@@H](O)[C@H](N)C[C@H](N)[C@H]3O[C@H]3O[C@H](CN)[C@@H](O)[C@H](O)[C@H]3N)O[C@@H]2CO)[C@H](N)[C@@H](O)[C@@H]1O [NEO, neomycin] | 10 to 100 | caused an increased heat output | caused an increase in power output | caused an increase in power | 20 to 100 | increase in power output |  |  |  |  | 
2 | Polymyxin B [POLB] |  |  |  |  |  |  | Reduced height of p-t curve initially | ≤ 1 | reduced the initial peak height and thereafter the p-t curve returned to baseline | severe reduction in power output followed by a return to baseline | Within 9 hours growth was inhibited completely

Reference: patent publication EP1785723A1, “Micro calorimetric analysis of mammalian cell susceptibility to agents that affect cell growth, metabolism and immune response, and use of micro calorimetric analysis in a transplantation test” (Stratos Bio Ltd., priority 2005, dated 2007)
